According to patent US10130618B2, “Pharmaceutical combinations of dabigatran and proton pump inhibitors” (SANOVEL ILAC SANAYI VE TICARET ANONIM SIRKETI, priority 2014, dated 2018):

Experiments:
[1] = DSC analysis of 1:1 API mixtures (compatibility with Dabigatran etexilate); type: physicochemical; settings: for DSC peak temperature of the mixture (peak shifting) / Compatibility by DSC: 1:1 mixture with Dabigatran etexilate; for DSC peak temperature of the mixture (peak shifting): 10° C./min, 30° C. to 300° C.; for Compatibility by DSC: characteristic peaks not determined; for Pharmaceutical incompatibility (discussion of DSC): with Dabigatran etexilate
Description: (§1) DSC Analysis: DSC scan of about 2 mg using an automatic thermal analyzer system performed accurately weighed of APIs (Dabigatran etexilate, Dabigatran etexilate mesylate, Esomeprazole, Dexlansoprazole) of 1:1 in ratio respectively. DSC scans performed with 10° C. per minute heat flow from 30° C. to 300° C. The peak shifting of active ingredients was determined by DSC analysis.
(§2) Method Log: • 1: Pan Type: Aluminum hermetic • 2: Equilibrate at 30.00° C. • 3: Ramp 10.00 ° C./min to 300.00° C. • 4: End of method
(§3) Results (Thermograms): • FIG. 1. Thermogram of Dabigatran etexilate • FIG. 2. Thermogram of Dabigatran etexilate mesylate • FIG. 3. Thermogram of Esomeprazole • FIG. 4. Thermogram of Dexlansoprazole • FIG. 5. Thermogram of Dabigatran etexilate: Esomeprazole • FIG. 6. Thermogram of Dabigatran etexilate mesylate: Esomeprazole • FIG. 7. Thermogram of Dabigatran etexilate: Dexlansoprazole • FIG. 8. Thermogram of Dabigatran etexilate mesylate: Dexlansoprazole
(§4) Discussion: The characteristic degradation and melting peaks of active ingredients were not determined. It indicates pharmaceutical incompatibility of esomeprazole and dexlansoprazole with Dabigatran etexilate and Dabigatran etexilate mesylate.

[2] = DSC analysis of 1:1 API mixtures (compatibility with Dabigatran etexilate mesylate); type: physicochemical; settings: for DSC peak temperature of the mixture (peak shifting) / Compatibility by DSC: 1:1 mixture with Dabigatran etexilate mesylate; for DSC peak temperature of the mixture (peak shifting): 10° C./min, 30° C. to 300° C.; for Compatibility by DSC: characteristic peaks not determined; for Pharmaceutical incompatibility (discussion of DSC): with Dabigatran etexilate mesylate
Description: as §1, §2, §3, §4

| DSC peak temperature of the mixture (peak shifting) [1] | Compatibility by DSC [1] | Pharmaceutical incompatibility (discussion of DSC) [1] | DSC peak temperature of the mixture (peak shifting) [2] | Compatibility by DSC [2] | Pharmaceutical incompatibility (discussion of DSC) [2] | Structure (SMILES) |
| --- | --- | --- | --- | --- | --- | --- |
| 87 °C | incompatible. | incompatibility | 82 °C | incompatible. | incompatibility | Cc1c(OCC(F)(F)F)ccnc1C[S@@+]([O-])c1nc2ccccc2[nH]1 [Dexlansoprazole, (+)-2-[(R)-{[3-methyl-4-(2,2,2-trifluoroethoxy)pyridin-2-yl]methyl}sulfinyl]-1H-benzimidazole] |
| 174 °C | incompatible. | incompatibility | 176 °C | incompatible. | incompatibility | COc1ccc2nc([S@@+]([O-])Cc3ncc(C)c(OC)c3C)[nH]c2c1 [Esomeprazole, (S)-5-methoxy-2-[(4-methoxy-3,5-dimethylpyridin-2-yl)methylsulfinyl]-3H-benzoimidazole] |
